Here are results for two compounds from patent publication US20240139153A1, “Inhibition of Endothelial ETS Family Transcription Factors Promotes Flow-Dependent Ocular Vessel Regression” (Oklahoma Medical Research Foundation, priority 2020, published 2024).

The test system of one data set is ROP. As to conditions: intravitreal injection, randomized study; cited from earlier work.
The next data set relates to retinal neovessels. As to conditions: OIR mice.
In a further data set the test system is 3D HUVEC cultures. Put plainly: Vasculogenic 3D collagen assay, regression of 3D lumenized HUVEC cultures. The data set is classed as cell-based, Human. As to the method: Vasculogenic 3D collagen assays. Human Umbilical Vein ECs were purchased from Lonza and used from passages 3 to 6 as previously described^42,43. ECs were suspended in 2.5 mg/mL collagen type I matrices, and assays were performed as described^42,43. With the exception that the culture media contained reduced serum supplement (RSII), ascorbic acid, FGF-2, Stem cell factor (SCF) at 40 ng/ml and interleukin-3 (IL-3) were added at 40 ng/ml. Stromal-derived factor-1α (SDF-1α) was added at 200 ng/ml into collagen type I matrices. Cultures were incubated at 37° C. in serum-free defined media and allowed to assemble over time. Cultures were fixed at 72 hr with 3% glutaraldehyde before staining with 0.1% toluidine blue in 30% methanol for nonfluorescent visualization. Lumen area was quantified by using Metamorph software as previously described^42,43. Individual data points were obtained from a triplicate wells and a minimum of 12 independent fields from these wells.
Bioassays with pharmacologic agents and cytokines. […] In some assays, triplicate wells were lysed with sample buffer and Western blots were performed to probe for pro-caspase 3 and actin.
YK-4-279 promotes flow-dependent vascular regression in vitro. […] Importantly, this culture model recapitulates many aspects of in vivo vessel morphology and has previously been used to model vascular regression^40.

Another data set has as its system hyaloid vessels. Briefly: Hyaloid vessel regression after intravitreal injection. Type of data set: in vivo, mice. As to conditions: intravitreal injection at P5, assessed at P7, versus vehicle-injected littermate controls; final concentration ~10 μmol/L in vitreous.
Another data set concerns healthy retinal vessels. Put plainly: Healthy retinal vessels of adult wild type mice after intravitreal injection. The data set is classed as in vivo. The conditions noted are these: 48 hr after intraocular injection. The source says:
Vascular length (FIG. 8B; n=4) and branch points (FIG. 8C; n=4) from retinas treated as in (FIG. 8A) were quantified using AutoTube and normalized to retinal area per image. NS=not significant (two-tailed Student's t-test). Error bars=S.D.

For the next data set, the system named is HUVECs. Briefly: HUVEC flow chamber study, static versus flow. Type of data set: cell-based, Human. As for the experimental part: Cell Culture/Flow Studies. Flow-based cell culture was performed using HUVECs (ATCC; #PCS-100-010) cultured in complete EGM-2 media (Lonza). HUVECs were cultured on Ibidi Luer^0,6 flow slides and allowed to grow at 37° C. in 5% CO2 for 24 h to a confluency of 80-90%. Slides were then attached to an Ibidi pump system with Perfusion Set Red (1.6 mm, #10962) and exposed to a sheer stress of 10 dyn/cm^2 for 24 h. Static conditions were achieved by similarly plating HUVECs in flow slides that were not exposed to flow. […] Cells were gently washed with 1 mL ice-cold PBS, then fixed and permeabilized by incubation with ice-cold methanol for 5 min. Fixed cells were treated with 1% BSA, 0.02% Triton X-100 for 1 hr at room temperature. Primary and secondary antibodies were added in 1% BSA and incubated for 2 hr at room temperature.
HUVECs grown in this 3D culture model form vascular lumens despite the absence of blood flow. […] This possibility is supported by a recent report that the transcriptional consequences of ERG inhibition are greatly mitigated in ECs exposed to sheer stress^58.

The mark [1] stands for this setting: inhibitor-injected eye relative to control eye.

Experimental for hyaloid vessels: Hyaloid Dissection and Quantification. Hyaloid were dissected and quantified as described previously. Briefly, eyes were enucleated from P4-P8 mice and fixed for 30 min in 4% paraformaldehyde (PFA). The eyes were then transferred to PBS and dissected by removal of the lens and sclera leaving the retinal cup in which the hyaloids were loosely wrapped around the lens. The lens was then carefully removed from which the hyaloids were gently removed. The hyaloids were then transferred in a drop of PBS and flat mounted for imaging by carefully removing the remaining PBS.
Quantification of hyaloid regression was accomplished by drawing an outline of hyaloid flat mounts (labeled with Isolectin-B4) which was then decreased in size by 50% and centered over the hyaloid flat mount. Blind counts of hyaloid vessel number were performed by counting the number of vessels which crossed the 50% outline.
Hyperthermia-induced anesthesia of wild type P5 mice was accomplished by submerging pups in ice for 5-8 min after placing them in a latex blanket wrapped in foil to avoid direct contact between the pup and ice. Once anesthetized (assessed by toe pinch) eyes were administered a drop of proparacaine hydrochloride ophthalmic solution (Akorn), followed by gentle exposure of the eye globe. […] Eyelids were then reclosed around the eye, and erythromycin ophthalmic ointment (Akorn) was applied. […]
Text for retinal neovessels: OIR Studies/Quantification. […] Generally, pups with their dams were maintained in room air from birth until P7. From P7 to P12 pups were exposed to 75% O2 in an oxygen chamber regulated by an OxyCycler Model A84. After 2.5 d of oxygen exposure, the dams were replaced with healthy lactating dams to prevent oxygen toxicity. At P12 pups were returned to room air until P18.
Two days after the injection, P20 mice were euthanized and retinas were dissected and immunostained for CD31 to quantify retinal vascular area as previously described^45.

Regarding “bevacizumab: a monoclonal VEGF-A antibody”, the “efficacy versus conventional laser-based therapy for treating ROP” value in the data set with ROP is on record as “more effective”.
Turning to `COc1ccc(C(=O)CC2(O)C(=O)Nc3c(Cl)ccc(Cl)c32)cc1` (stereo not drawn) [YK-4-279], in the data set with retinal neovessels (setting [1]), the “mice showing an increase in neovessels” value was “one” and the “mice with a decrease in retinal neovascular area” value is reported as 9 out of 11. The “decrease in the retinal avascular area” value in the data set on retinal neovessels (intravitreal injection at P18, analysed at P20, versus vehicle) is about 60%. For the same compound, in the data set with retinal neovessels (intravitreal injection at P18, analysed at P20, versus vehicle-injected contralateral eye), the “reduction in retinal neovascular area” value is about 40%. For the same compound, the “concentrations giving significant, dose-dependent loss of vascular luminal area” value in the data set on 3D HUVEC cultures (3D HUVEC cultures, 48 h treatment, toluidine blue stain) is “greater than 1.25 μM”. In addition, the “pro-caspase 3 signal (Western blot)” value with 3D HUVEC cultures (3D HUVEC cultures, FIG. 5C) is listed as “Reduced pro-caspase 3 signal”. In addition, the “extent of vascular regression (3D HUVEC lumen area) on co-incubation with cytokines” value in the data set on 3D HUVEC cultures (co-incubation of TNFα or IL1β with YK-4-279, versus YK-4-279 alone) is listed as “further increases the extent of vascular regression”. Besides, in the data set with hyaloid vessels, the “reduction in hyaloid vessel number” value is recorded as about 40%. The “effects on retinal vascularization (vascular length, branch points)” value with healthy retinal vessels is “no effects”. Moreover, in the data set on HUVECs (flow conditions, 10 dyn/cm^2), the “active caspase-3 staining” value is “no apparent effect”, the “alignment of HUVECs in the direction of flow” value is listed as “inhibited the alignment” and the cell number result is “no apparent effect”. Further, in the data set on HUVECs (static conditions, 5 μM, 24 hr), the “active caspase-3 staining” value is given as “increased active caspase-3 staining” and the cell number result is listed as “significantly reduced cell numbers”.
